Data reported in patent US9579325B2, “Modulators of TNF-α signaling” (Genzyme Corporation, priority 2000, dated 2017).
Where two headings read alike, the source gives them in different places. Blank lines part the entries; values can stand above or below the compound they belong to.

Legend:
[1] = Pharmacokinetic parameters; format: in vivo; conditions: for half-life: unit and species not given, read-out: Pharmacokinetic Parameters t1/2 (converted)
C57/BL mouse = assay: Sepsis model: murine LPS-d-galactosamine model; format: in vivo; conditions: prevention of mortality over three days
Procedure: Sepsis was induced in the C57/BL mouse by the intravenous injection of 20 ng of lipopolysaccharide/animal plus 20 mgs d-galactosamine/animal. Inhibition was measured as the prevention of mortality over a three day period. Compounds were administered intraperitoneally in 10% cremophore/10% ethanol/80% normal saline one hour before induction.

L929 cells = assay: TNF High Throughput Screen (TNF-α driven apoptosis assay); format: cell-based, mouse; conditions: human TNF-α + actinomycin D, read-out: TNFα IC50
From the text: (§1) Description of Table V: The results shown in Table V were obtained using the TNF-α assays performed as described in the protocols entitled “Method for TNF High Throughput Screen” and “Method for VCAM High Throughput Screen”, which are detailed below. These assays measure a cellular response to TNF-α stimulation, and the data published in the table are expressed as percentage inhibitions. Percentage inhibition is computed on a scale of 0 to 100% where 0 percent inhibition means the compound has no effect in the assay (the response is indistinguishable from TNF-α treatment alone), and 100% inhibition means that when the compound is present at the stated concentration, the response in the assay is the same as if TNF-α were not added. These two assays measure two different outcomes of TNF-α treatment, cell death and Vascular Cell Adhesion Molecule (VCAM) expression, and capture two of TNF-α's many biological effects. TNF-α induced apoptosis is a mechanism by which TNF-α production during immune/inflammatory responses can lead to direct cellular and tissue damage. TNF-α VCAM expression in endothelial cells is a response that allows leukocytes to leave the blood and enter a site of immune/inflammatory response. Both of these activities could lead to pathology in immune/inflammatory diseases. In the first column of the table, the percentage inhibition of the TNF-α driven apoptosis assay when the compounds are tested at 1 μM concentration is presented. The second column in the table lists the IC50 for the compound, a standard measure using a dilution series in the assay, and fitting a sigmoidal curve to the resulting dose-response curve. The IC50 is the concentration (derived analytically from the sigmoidal function) at which the compound would inhibit 50% of the response in the assay. The third and fourth column list the corresponding analysis for the TNF-α driven VCAM assay. In Table VI, data corresponding to the data in column 1 of Table V is shown, with human cells replacing the mouse cells used in the high throughput screen. […] As a consequence, the compounds will have use in treating more than one TNF-α mediated condition, and may be selected according to the manner in which the condition manifests. This corresponds to the use of these compounds in the treatment of human disease.
TNF High Throughput Screen.
• 1. Plate 4×10^4 L929 cells in 100 μl of complete EMEM in Costar 96 well plates in PM. • 2. The next day, pretreat with compound, inhibitor and control vehicle for 2 hours. • 3. After 2 hours pretreatment, add 10 μl 5 ng/ml human TNF-α and actinomycin D (40 μg/ml final concentration). • 4. Incubate overnight. • 5. In AM, remove supernatant. • 6. Wash on a plate washer (0.9% NaCl). • 7. Add 100 μl Crystal Violet 0.1% in 20% ETOH. • 8. Incubate at RT for 10 minutes. • 9. Wash on plate washer. • 10. Air dry wells at 37° C. • 11. Add 100 μl of methanol to each well. • 12. Shake plates on orbital shaker and read at 595 nm on plate reader. VCAM High Throughput Screen: Protocol: • 1. Plate Primary human umbilical vein endothelial cells at 1.8×10^4 cells/well in a 96-well tissue culture plate. • 2. Return Plates to 37° C. incubator for 48-72 hours before assay. • 3. On assay day, aspirate wells and add 1804, of endothelial growth cell medium (EGM) to each well. • 4. Add Compound to each well. • 5. Shake plates for 3 minutes. • 6. Incubate plate for 1 hour at 37° C. • 7. Add Tumor Necrosis Factor (TNF) at 1.0 ng/ml final concentration. • 8. Shake plates for 3 minutes. • 9. Incubate plate for 2 hours at 37° C. • 10. Remove plate from incubator and wash plate 3 times with phosphate buffered saline (PBS) using a plate washer. • 11. Add anti-VCAM antibody at 0.5 μg/ml final concentration. • 12. Incubate at 4° C. overnight. • 13. Wash 3 times with PBS on plate washer. • 14. Add goat anti-mouse horseradish peroxidase conjugate. • 15. Incubate at room temperature for one hour. • 16. Wash 3 times with PBS on plate washer. • 17. […]

male rats = assay: Inflammatory Bowel Disease model: rat DNBS distal colitis; format: in vivo; conditions: 7 doses
Procedure: Groups of three male rats weighing 150+/−10 g and fasted for 24 hours were used. Distal colitis was induced by intracolonic instillation of 0.5 ml/rat DNBS (2,4-dinitrobenzene sulfonic acid, 60 mg/ml in ethanol 30%) after which air (2 ml) was gently injected through the cannula to ensure that the solution remains in the colon. A test compound was administered orally 24 and 2 hours before DNBS-instillation and then daily for 5 days in a total of 7 doses. The animals were sacrificed 24 hours after the final dose of test compound administration and each colon was removed and weighed.

[2] = system: Vascular Cell Adhesion Molecule (VCAM) expression in primary human umbilical vein endothelial cells; assay: VCAM High Throughput Screen (TNF-α driven VCAM expression); format: cell-based; conditions: HUVEC, TNF 1.0 ng/ml
From the text: as §1
• 1. Plate 4×10^4 L929 cells in 100 μl of complete EMEM in Costar 96 well plates in PM. • 2. The next day, pretreat with compound, inhibitor and control vehicle for 2 hours. • 3. After 2 hours pretreatment, add 10 μl 5 ng/ml human TNF-α and actinomycin D (40 μg/ml final concentration). • 4. Incubate overnight. • 5. In AM, remove supernatant. • 6. Wash on a plate washer (0.9% NaCl). • 7. […] Shake plates on orbital shaker and read at 595 nm on plate reader. […]

SMILES: O=C(c1ccccc1)c1ccccc1C(=O)N(CCc1c[nH]cn1)C(Cc1ccccc1)C(=O)NCC(c1ccccc1)c1ccccc1 (racemic) [Compound 43]
bioavailability ([1]; in vivo, po, species not given): < 1%
half-life ([1]; in vivo): 3.6 h
Sepsis: Murine LPS-d-galactosamine model % inhibition (C57/BL mouse; 10 mg/kg intraperitoneally one hour before induction): 33 @ 10 mg/kg %
IC50 (L929 cells; Mus musculus): 2.98 µM
Inflammatory Bowel Disease: Rat DNBS model % inhibition of colonic weight gain (male rats; 50 mg/kg orally): 31% @ 50 mg/kg

IC50 [2]: 16 µM
SMILES: COc1ccc(C(C(=O)NCC(c2ccccc2)c2ccccc2)N(CCc2c[nH]cn2)C(=O)c2ccccc2C(=O)c2ccccc2)cc1C (centres unmarked) [Compound 42]
IC50 (L929 cells; Mus musculus): 0.779 µM

SMILES: Cc1nn(-c2nccc(-c3ccccn3)n2)c(C)c1Oc1ccc(CN2CCN(Cc3ccccc3)CC2)cc1 [Compound 104, 2-{4-[4-(4-Benzyl-piperazin-1-ylmethyl)-phenoxy]-3,5-dimethyl-pyrazol-1-yl}-4-pyridin-2-yl-pyrimidine]
IC50 (L929 cells; Mus musculus): 0.05 µM

SMILES: Cc1nn(-c2nccc(-c3ccccn3)n2)c(C)c1SCc1ccc(Cl)cc1 [Compound 119, 2-[4-(4-Chloro-benzylsulfanyl)-3,5-dimethyl-pyrazol-1-yl]-4-pyridin-2-yl-pyrimidine]
half-life ([1]; in vivo): 2.3 h
Pharmacokinetic Parameters % oral bioavailability ([1]; species not given): Undetectable
Sepsis: Murine LPS-d-galactosamine model % inhibition (C57/BL mouse; 200 mg/kg intraperitoneally one hour before induction): 33 @ 200 mg/kg %
IC50 [2]: 7.95 µM
Inflammatory Bowel Disease: Rat DNBS model % inhibition of colonic weight gain (male rats; 100 mg/kg orally): 51% @ 100 mg/kg

IC50 [2]: 13.4 µM
SMILES: Cc1nn(-c2nccc(-c3ccccn3)n2)c(C)c1S(=O)(=O)Cc1ccc(Cl)cc1 [Compound 124, 2-[4-(4-Chloro-phenylmethanesulfonyl)-3,5-dimethyl-pyrazol-1-yl]-4-pyridin-2-yl-pyrimidine]

SMILES: Nc1nc(-c2ccccn2)nc(-n2nc(-c3ccc(Cl)cc3)nc2Cc2ccccc2)n1 [Compound 133, 4-[5-Benzyl-3-(4-chloro-phenyl)-[1,2,4]triazol-1-yl]-6-pyridin-2-yl-[1,3,5]triazin-2-ylamine]
IC50 (L929 cells; Mus musculus): 19.5 µM

SMILES: Cc1nn(-c2ncnc(-c3ccccn3)n2)c(C)c1Sc1ccc(Cl)cc1 [Compound 141, 2-[4-(4-Chloro-phenylsulfanyl)-3,5-dimethyl-pyrazol-1-yl]-4-pyridin-2-yl-[1,3,5]triazine]
IC50 (L929 cells; Mus musculus): 0.0011 µM

SMILES: Cc1nn(-c2nc(N)nc(-c3ccccn3)n2)c(C)c1Cc1ccccc1 [Compound 142, 4-(4-Benzyl-3,5-dimethyl-pyrazol-1-yl)-6-pyridin-2-yl-[1,3,5]triazin-2-ylamine]
IC50 (L929 cells; Mus musculus): 0.152 µM

SMILES: Cc1nn(-c2nc(N)nc(-c3ccccn3)n2)c(C)c1CCCc1ccccc1 [Compound 144, 4-[3,5-Dimethyl-4-(3-phenyl-propyl)-pyrazol-1-yl]-6-pyridin-2-yl-[1,3,5]triazin-2-lyamine]
IC50 (L929 cells): 0.015 µM

SMILES: CC1=NN(c2nccc(-c3ccccn3)n2)C(=O)C1Sc1ccc(Cl)cc1 (centres unmarked) [Compound 147, 4-(4-Chloro-phenylsulfanyl)-5-methyl-2-(4-pyridin-2-yl-pyrimidin-2-yl)-2,4-dihydro-pyrazol-3-one]
IC50 (L929 cells; Mus musculus): 0.734 µM

SMILES: COc1c(Sc2ccc(Cl)cc2)c(C)nn1-c1nccc(-c2ccccn2)n1 [Compound 148, 2-[4-(4-Chloro-phenylsulfanyl)-5-methoxy-3-methyl-pyrazol-1-yl]-4-pyridin-2-yl-pyrimidine]
IC50 (L929 cells; Mus musculus): 32.1 µM
